As usually defined, the IC50 is the concentration needed to halve the response being measured.

Our source for the IC50 values is US20090004185A1, “AMINO-SUBSTITUTED QUINAZOLINE DERIVATIVES AS INHIBITORS OF BETA-CATENIN/TCF-4 PATHWAY AND CANCER TREATMENT AGENTS” (WYETH, priority 2007, published 2009).

Each structure is given as a SMILES string.

In one assay the test system is β-catenin/Tcf-4. Kind of assay: cells. It is filed as cell-based. The settings on record: Homo sapiens, 24 hours of incubation with compound, ratio Firefly/Renilla luciferase. From the text: Background cell line: SW480 colorectal carcinoma DNA constructs:
1) Tcf-4-Luc: Tcf-4 binding sites driving Firefly Luciferase in the pGL3 vector—to measure the activity of β-catenin/Tcf-4;
(§1) 2) SV40-Luc: SV40 binding site driving Firefly Luciferase in the pGL3 vector—as a control for non-specific inhibitors; and
(§2) 3) SV40-R-Luc: SV40 binding site driving Renilla Luciferase in the pGL3 vector—as an internal control for cell number and toxicity.
This screen uses 3 cell lines derived from SW480 and selected to contain the above luciferase reporters integrated into their chromosomes as follows: […]
(§3) Cells: Tcf22C11 and SV5A8 were grown in the presence of 500 μg/ml G418 and Tcf 33.13 was grown in the presence of 500 μg/ml G418+125 μg/ml Zeocin to maintain the integrated reporters. The cells were trypsinized and plated at 1×10^4 cells/well in opaque 96 well plates.
The compounds were diluted as follows: The compounds were stored frozen in dimethyl sulfoxide (DMSO) at […]. Compounds were initially titrated in DMSO to make a 1000×DMSO stock solution. Compounds were then diluted 1:25 into media/DMSO (DMEM+10% FBS+9% DMSO). Using the Biomek Multimek, the diluted compounds were mixed well and immediately added to the plated cells in a 1:40 dilution. The final concentration of DMSO in the assay plates was 0.316% DMSO.
(§4) Assay Readout: The luciferase signal was detected using a luciferase detection kit from Promega. Until December 2003, Promega's Dual-Luciferase® Reporter (DLR™) Assay System was used to detect luciferase activity. Briefly, after 24 hours of incubation with compound, culture media was removed by aspiration and 20 ul of passive lysis buffer (Promega) per well was added. The plates were shaken for 15 min. Firefly substrate was then added and the resulting luminescence was immediately read on a CCD camera imaging device or a luminometer. After quantifying the firefly luminescence, the reaction was quenched, and the Renilla luciferase reaction was initiated simultaneously by adding Stop & Glo® Reagent to the same sample. Renilla luciferase was then quantified using the CCD camera or luminometer.
Promega's Dual-Glo™ Luciferase Assay System can be used for luciferase detection. […] Briefly, after 24 hours of incubation with compound, culture media was removed by aspiration and 75 ul of fresh medium was added. Add 75 ul of Dual-Glo Luciferase Reagent (Promega) to each well and mix by shaking for 10 minutes on a plate shaker. Then, measure the firefly luminescence on a CCD camera imaging device or a luminometer. After quantifying the firefly luminescence, add 75 ul of Dual-Glo Stop & Glo Reagent (Promega) to each well and mix for 10 minutes. Renilla luciferase was then quantified using the CCD camera or luminometer.
(§5) This assay was meant to confirm primary leads and determine IC50s. Compounds were tested at titrated dilutions. The raw data for this assay was reported in protocol 2463-B. Protocol 2463-C contains the IC50 calculations based on the raw data. The data calculations were done as follows:
(§6) The data was expressed as % of control for both Firefly and Renilla Luciferase. The ratio of FF/Renilla (F/R) was then calculated and averaged between duplicate plates. The data was then plotted using LSW Data Analysis in Microsoft Excel. IC50s were determined by plotting the data in the LSW Data Analysis program using model 33. The IC50s (nM) for all three cell lines were reported.

The next assay has as its system SV40-Luc. Kind of assay: SV40-Luc control luciferase reporter assay, SV 5A8 cell line (SV40-Luc and SV40-R-Luc), control for non-specific inhibitors. It is filed as cell-based, human. Particulars: Homo sapiens, SV5A8, 24 h, SV 5A8 cells derived from SW480; 24 hours of incubation with compound; ratio Firefly/Renilla luciferase.
Text: Background cell line: SW480 colorectal carcinoma DNA constructs: […]
as §1, §2
This screen uses 3 cell lines derived from SW480 and selected to contain the above luciferase reporters integrated into their chromosomes as follows:
SV 5A8—SV40-Luc and SV40-R-Luc
as §3
Compounds: 20-24 hours after cell plating, compounds were added at titrated concentrations between […]. The compounds were diluted as follows: The compounds were stored frozen in dimethyl sulfoxide (DMSO) at […]. Compounds were initially titrated in DMSO to make a 1000×DMSO stock solution. Compounds were then diluted 1:25 into media/DMSO (DMEM+10% FBS+9% DMSO). Using the Biomek Multimek, the diluted compounds were mixed well and immediately added to the plated cells in a 1:40 dilution. The final concentration of DMSO in the assay plates was 0.316% DMSO.
as §4
Promega's Dual-Glo™ Luciferase Assay System can be used for luciferase detection. It was similar to the DLR Assay, however, unlike the DLR which has to be read immediately due to decaying signal, the signal in the Dual-Glo™ Luciferase Assay was stable for up to 2 hours. Briefly, after 24 hours of incubation with compound, culture media was removed by aspiration and 75 ul of fresh medium was added. Add 75 ul of Dual-Glo Luciferase Reagent (Promega) to each well and mix by shaking for 10 minutes on a plate shaker. Then, measure the firefly luminescence on a CCD camera imaging device or a luminometer. After quantifying the firefly luminescence, add 75 ul of Dual-Glo Stop & Glo Reagent (Promega) to each well and mix for 10 minutes. Renilla luciferase was then quantified using the CCD camera or luminometer.
as §5, §6
A general note: A reporter such as luciferase makes a cellular process visible.

The mark [1] stands for this setting: SW480, 24 h, Tcf 33.13 cells derived from SW480.
[2] abbreviates: Tcf22C11, 24 h, Tcf 22C11 cells derived from SW480.

For the molecule `CNc1nc(NCc2ccc(NC(=O)c3cc(F)ccc3C)cc2)c2ccccc2n1` [Example 1, 5-fluoro-2-methyl-N-[4-({[2-(methylamino)quinazolin-4-yl]amino}methyl)phenyl]benzamide], the IC50 in the assay on β-catenin/Tcf-4 (setting [1]) and with β-catenin/Tcf-4 (setting [2]) was greater than 6020 nM throughout.
Consider `CNc1nc(NCc2ccc(NC(=O)COCc3ccccc3)cc2)c2ccccc2n1` [Example 2, 2-(benzyloxy)-N-[4-({[2-(methylamino)quinazolin-4-yl]amino}methyl)phenyl]acetamide], for which the IC50 in the assay with β-catenin/Tcf-4 (setting [1]) and with β-catenin/Tcf-4 (setting [2]) was greater than 2920 nM in each case.
For `CNc1nc(NCc2ccc(NC(=O)c3ccc(Cl)nc3)cc2)c2ccccc2n1` [Example 3, 6-chloro-N-[4-({[2-(methylamino)quinazolin-4-yl]amino}methyl)phenyl]nicotinamide], the IC50 with SV40-Luc is greater than 2980 nM.
Same read-out and setting: with `CNc1nc(NCc2ccc(NC(=O)c3ccnc(Cl)c3)cc2)c2ccccc2n1` [Example 4, 2-chloro-N-[4-({[2-(methylamino)quinazolin-4-yl]amino}methyl)phenyl]isonicotinamide] the figure was greater than 2980 nM.
On the same count and under the same terms, under `CNc1nc(NCc2ccc(NC(=O)c3ccc(Cl)cc3)cc2)c2ccccc2n1` [Example 10, 4-chloro-N-[4-({[2-(methylamino)quinazolin-4-yl]amino}methyl)phenyl]benzamide] stands 2190 nM; under `CNc1nc(NCc2ccc(NC(=O)c3cccc(Cl)c3)cc2)c2ccccc2n1` [Example 11, 3-chloro-N-[4-({[2-(methylamino)quinazolin-4-yl]amino}methyl)phenyl]benzamide], greater than 5980 nM; under `CNc1nc(NCc2ccc(NC(=O)c3ccc(C)cc3)cc2)c2ccccc2n1` [Example 12, 4-methyl-N-[4-({[2-(methylamino)quinazolin-4-yl]amino}methyl)phenyl]benzamide], greater than 25200 nM.
For `CNc1nc(NCc2ccc(NC(=O)c3ccc(F)cc3)cc2)c2ccccc2n1` [Example 13, 4-fluoro-N-[4-({[2-(methylamino)quinazolin-4-yl]amino}methyl)phenyl]benzamide], the IC50 with SV40-Luc is greater than 778 nM.
Regarding `CNc1nc(NCc2ccc(NC(=O)c3ccc(-c4ccccc4)cc3)cc2)c2ccccc2n1` [Example 15, N-[4-({[2-(methylamino)quinazolin-4-yl]amino}methyl)phenyl]biphenyl-4-carboxamide], the IC50 with SV40-Luc was greater than 5440 nM.
Turning to `CNc1nc(NCc2ccc(NC(=O)c3ccc(Cl)cc3)cc2)c2cc(C)ccc2n1` [Example 18, 4-chloro-N-[4-({[6-methyl-2-(methylamino)quinazolin-4-yl]amino}methyl)phenyl]benzamide], the IC50 with SV40-Luc was greater than 5790 nM.
Turning to `CNc1nc(NCc2ccc(NC(=O)c3ccc(C(F)(F)F)cc3)cc2)c2ccccc2n1` [Example 20, N-[4-({[2-(methylamino)quinazolin-4-yl]amino}methyl)phenyl]-4-(trifluoromethyl)benzamide], the IC50 with SV40-Luc was greater than 1380 nM.
Still for that read-out and setting: with `CNc1nc(NCc2ccc(NC(=O)c3ccc(C#N)cc3)cc2)c2ccccc2n1` [Example 21, 4-cyano-N-[4-({[2-(methylamino)quinazolin-4-yl]amino}methyl)phenyl]benzamide] the figure was greater than 12200 nM; with `CNc1nc(NCc2ccc(NC(=O)c3ccc(F)cc3)cc2)c2cc(C)ccc2n1` [Example 24, 4-fluoro-N-[4-({[6-methyl-2-(methylamino)quinazolin-4-yl]amino}methyl)phenyl]benzamide], greater than 602 nM; with `CN(C)c1nc(NCc2ccc(NC(=O)c3ccc(F)cc3)cc2)c2ccc(I)cc2n1` [Example 86, N-[4-({[2-(dimethylamino)-7-iodoquinazolin-4-yl]amino}methyl)phenyl]-4-fluorobenzamide], greater than 18500 nM.
Still for that read-out and setting: with `C=Cc1ccc2c(NCc3ccc(NC(=O)c4ccc(F)cc4)cc3)nc(N(C)C)nc2c1` [Example 87, N-[4-({[2-(dimethylamino)-7-vinylquinazolin-4-yl]amino}methyl)phenyl]-4-fluorobenzamide] the figure was greater than 20900 nM; with `CCc1ccc2c(NCc3ccc(NC(=O)c4ccc(F)cc4)cc3)nc(N(C)C)nc2c1` [Example 88, N-[4-({[2-(dimethylamino)-7-ethylquinazolin-4-yl]amino}methyl)phenyl]-4-fluorobenzamide], greater than 2600 nM; with `CN(C)c1nc(NCc2ccc(NC(=O)c3ccc(F)cc3)cc2)c2ccc(C#N)cc2n1` [Example 89, N-[4-({[7-cyano-2-(dimethylamino)quinazolin-4-yl]amino}methyl)phenyl]-4-fluorobenzamide], greater than 21000 nM.
Take `CN(C)Cc1ccc2c(NCc3ccc(NC(=O)c4ccc(F)cc4)cc3)nc(N(C)C)nc2c1` [Example 91, N-{4-[({2-(dimethylamino)-7-[(dimethylamino)methyl]quinazolin-4-yl}amino)methyl]phenyl}-4-fluorobenzamide]: the IC50 with SV40-Luc was greater than 9170 nM.
On the same count and under the same terms, with `CN(C)c1nc(NCc2ccc(NC(=O)c3ccc(F)cc3)cc2)c2ccc(C=O)cc2n1` [Example 92, N-[4-({[2-(dimethylamino)-7-formylquinazolin-4-yl]amino}methyl)phenyl]-4-fluorobenzamide] the figure was greater than 17900 nM; with `CN(C)c1nc(NCc2ccc(NC(=O)c3ccc(F)cc3)cc2)c2ccc(CO)cc2n1` [Example 93, N-[4-({[2-(dimethylamino)-7-(hydroxymethyl)quinazolin-4-yl]amino}methyl)phenyl]-4-fluorobenzamide], greater than 10400 nM.
Same read-out and setting: under `CC(O)c1ccc2c(NCc3ccc(NC(=O)c4ccc(F)cc4)cc3)nc(N(C)C)nc2c1` (centres unmarked) [Example 95, N-[4-({[2-(dimethylamino)-7-(1-hydroxyethyl)quinazolin-4-yl]amino}methyl)phenyl]-4-fluorobenzamide] stands greater than 20200 nM; under `CNc1nc(NCc2ccc(NC(=O)c3ccc(Cl)nc3)cc2)c2cccc(C)c2n1` [Example 183, 6-chloro-N-[4-({[8-methyl-2-(methylamino)quinazolin-4-yl]amino}methyl)phenyl]nicotinamide], greater than 2890 nM; under `CNc1nc(NCc2ccc(NC(=O)c3ccc(F)cc3)cc2)c2cccc(C)c2n1` [Example 190, 4-fluoro-N-[4-({[8-methyl-2-(methylamino)quinazolin-4-yl]amino}methyl)phenyl]benzamide], greater than 3010 nM.
For the molecule `CNc1nc(NCc2ccc(NC(=O)c3ccc(Cl)cc3)cc2)c2cccc(C)c2n1` [Example 191, 4-chloro-N-[4-({[8-methyl-2-(methylamino)quinazolin-4-yl]amino}methyl)phenyl]benzamide], in the assay with SV40-Luc, the IC50 was greater than 1450 nM.
